# Source: patent US20220356186A1, “PERK INHIBITING PYRROLOPYRIMIDINE COMPOUNDS” (HiberCell, Inc., priority 2019, published 2022)
# Read-outs that look alike come from different tables or passages of the source.
# Legend:
# [1] = tested on: GFP-eIF2α in HEK293 cells; experiment: PERK cellular assay, TR-FRET in HEK293-EGFP-eIF2a cells after tunicamycin-induced ER stress; type: cell-based; conditions: HEK293-EGFP-eIF2a cells, tunicamycin 2 hours, read-out: Cellular eIF2α IC50
# Outline: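 HEK293 cells stably expressing GFP-eIF2α, plated 5000 cells/well overnight, pretreated with inhibitors 30 min at 37 °C, then ER stress induced with tunicamycin […] for 2 h.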
# [2] = target: T1, EIF2AK3 (PERK) catalytic domain (amino acids 536-1116) (Homo sapiens, UniProt Q9NZJ5); experiment: PERK in vitro activity assay (isolated), TR-FRET kinase assay; type: biochemical; conditions: isolated PERK enzyme, 1.5 μM ATP; read-out: Biochemical IC50
# T1 construct: EIF2AK3 (PERK) catalytic domain (amino acids 536-1116)
# T1 sequence (Q9NZJ5 536-1116): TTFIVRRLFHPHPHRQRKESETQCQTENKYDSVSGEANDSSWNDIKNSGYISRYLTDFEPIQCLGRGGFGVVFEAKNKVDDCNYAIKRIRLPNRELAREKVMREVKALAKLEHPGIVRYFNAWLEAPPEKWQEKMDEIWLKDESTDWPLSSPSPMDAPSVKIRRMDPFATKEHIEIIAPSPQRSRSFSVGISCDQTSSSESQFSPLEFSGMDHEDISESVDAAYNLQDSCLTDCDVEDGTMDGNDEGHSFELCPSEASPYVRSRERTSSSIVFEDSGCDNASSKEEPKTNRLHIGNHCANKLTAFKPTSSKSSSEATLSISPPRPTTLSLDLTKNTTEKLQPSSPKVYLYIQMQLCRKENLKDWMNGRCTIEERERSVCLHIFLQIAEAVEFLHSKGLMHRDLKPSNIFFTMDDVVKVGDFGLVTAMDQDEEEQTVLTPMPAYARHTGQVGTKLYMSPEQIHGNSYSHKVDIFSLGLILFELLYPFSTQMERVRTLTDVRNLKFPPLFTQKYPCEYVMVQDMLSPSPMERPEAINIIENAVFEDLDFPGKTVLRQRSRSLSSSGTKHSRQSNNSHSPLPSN
# Outline: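 Human PERK catalytic domain (aa 536-1116) phosphorylating 100-200 nM GFP-eIF2a in 50 mM HEPES pH 7.5, 10 mM MgCl2, 1 mM EGTA, 0.01% Brij-35; enzyme-started, 45 min at room temperature. Stopped with 10 mM EDTA, 2 nM Tb-anti-phospho-eIF2a added for 90 min; IC50 from TR-FRET ratios by 4-parameter logistic fit.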
SMILES,IC50 [2] [nM],IC50 [1] [nM],"IC50 ([1]; Homo sapiens, HEK293, 2 h) [nM]"
"COC(C(=O)Nc1ccc(-c2cn(C)c3ncnc(N)c23)c(C)c1)c1ccccc1 (stereo not shown) [Example 8, N-(4-(4-amino-7-methyl-7H-pyrrolo[2,3-d]pyrimidin-5-yl)-3-methylphenyl)-2-methoxy-2-phenylacetamide]",1 to 25,,101 to 250
"Cc1nc(N)c2c(-c3ccc(NC(=O)C(O)c4cc(F)cc(F)c4)cc3C)cn(C)c2n1 (stereo not shown) [Example 52, N-(4-(4-amino-2,7-dimethyl-7H-pyrrolo[2,3-d]pyrimidin-5-yl)-3-methylphenyl)-2-(3,5-difluorophenyl)-2-hydroxyacetamide]",1 to 25,1 to 25,
"Cc1nc(N)c2c(-c3ccc(NC(=O)C(O)c4cccc(Cl)c4)c(F)c3F)cn(C)c2n1 (stereo not shown) [Example 111, N-(4-(4-amino-2,7-dimethyl-7H-pyrrolo[2,3-d]pyrimidin-5-yl)-2,3-difluorophenyl)-2-(3-chlorophenyl)-2-hydroxyacetamide]",1 to 25,1 to 25,
"Cc1cc(F)cc(C(O)C(=O)Nc2ccc(-c3cn(C)c4nc(C)nc(N)c34)c(C)c2)c1 (stereo not shown) [Example 57, N-(4-(4-amino-2,7-dimethyl-7H-pyrrolo[2,3-d]pyrimidin-5-yl)-3-methylphenyl)-2-(3-fluoro-5-methylphenyl)-2-hydroxyacetamide]",26 to 50,101 to 250,
"Cc1cc(NC(=O)Cc2cccc3cnccc23)ccc1-c1cn(C)c2ncnc(N)c12 [Example 156, N-(4-(4-amino-7-methyl-7H-pyrrolo[2,3-d]pyrimidin-5-yl)-3-methylphenyl)-2-(isoquinolin-5-yl)acetamide]",51 to 100,,251 to 500
"COc1ccc(CC(=O)Nc2ccc(-c3cn(C)c4ncnc(N)c34)c(C)c2)cc1 [Example 141, N-(4-(4-amino-7-methyl-7H-pyrrolo[2,3-d]pyrimidin-5-yl)-3-methylphenyl)-2-(4-methoxyphenyl)acetamide]",51 to 100,,251 to 500
"Cc1cc(NC(=O)Nc2ccccc2)ccc1-c1cn(C)c2ncnc(N)c12 [Example 170, 1-(4-(4-amino-7-methyl-7H-pyrrolo[2,3-d]pyrimidin-5-yl)-3-methylphenyl)-3-phenylurea]",1 to 25,,101 to 250
"Cc1nc(N)c2c(-c3ccc(NC(=O)C(O)c4cc(F)cc(C(F)(F)F)c4)c(F)c3F)cn(C)c2n1 (single isomer, unassigned) [Example 116, N-(4-(4-amino-2,7-dimethyl-7H-pyrrolo[2,3-d]pyrimidin-5-yl)-2,3-difluorophenyl)-2-(3-fluoro-5-(trifluoromethyl)phenyl)-2-hydroxyacetamide]",251 to 500,251 to 500,
"Cc1nc(N)c2c(-c3ccc(NC(=O)C(O)c4cccc(F)c4)cc3C(F)(F)F)cn(C)c2n1 (stereo not shown) [Example 19, N-(4-(4-amino-2,7-dimethyl-7H-pyrrolo[2,3-d]pyrimidin-5-yl)-3-(trifluoromethyl)phenyl)-2-(3-fluorophenyl)-2-hydroxyacetamide]",1 to 25,101 to 250,
"Cc1nc(N)c2c(-c3ccc(NC(=O)C(O)c4cccc(C(F)(F)F)c4)cc3C)cn(C)c2n1 (stereo not shown) [Example 51, N-(4-(4-amino-2,7-dimethyl-7H-pyrrolo[2,3-d]pyrimidin-5-yl)-3-methylphenyl)-2-hydroxy-2-(3-(trifluoromethyl)phenyl)acetamide]",101 to 250,501 to 1000,
"Cc1cc(NC(=O)Cc2ccc(F)cc2)ccc1-c1cn(C)c2ncnc(N)c12 [Example 140, N-(4-(4-amino-7-methyl-7H-pyrrolo[2,3-d]pyrimidin-5-yl)-3-methylphenyl)-2-(4-fluorophenyl)acetamide]",1 to 25,,26 to 50
"Cc1cc(NC(=O)Cc2cccc3ncccc23)ccc1-c1cn(C)c2ncnc(N)c12 [Example 154, N-(4-(4-amino-7-methyl-7H-pyrrolo[2,3-d]pyrimidin-5-yl)-3-methylphenyl)-2-(quinolin-5-yl)acetamide]",51 to 100,,501 to 1000

# The next lines start with results.
IC50 [2] [nM],SMILES,IC50 [1] [nM],"IC50 ([1]; Homo sapiens, HEK293, 2 h) [nM]"
1 to 25,"Cn1cc(-c2ccc(NC(=O)C(O)c3cccc(F)c3)cc2)c2c(N)ncnc21 (stereo not shown) [Example 29, N-(4-(4-amino-7-methyl-7H-pyrrolo[2,3-d]pyrimidin-5-yl)phenyl)-2-(3-fluorophenyl)-2-hydroxyacetamide]",1 to 25,
1 to 25,"Cn1cc(-c2ccc(NC(=O)C(O)c3cccc(F)c3)cc2F)c2c(N)ncnc21 (single isomer, unassigned) [Example 4, N-(4-(4-amino-7-methyl-7H-pyrrolo[2,3-d]pyrimidin-5-yl)-3-fluorophenyl)-2-(3-fluorophenyl)-2-hydroxyacetamide]",1 to 25,
1 to 25,"Cc1nc(N)c2c(-c3ccc(NC(=O)C(O)c4cccc(Cl)c4)cc3C)cn(C)c2n1 (stereo not shown) [Example 37, N-(4-(4-amino-2,7-dimethyl-7H-pyrrolo[2,3-d]pyrimidin-5-yl)-3-methylphenyl)-2-(3-chlorophenyl)-2-hydroxyacetamide]",1 to 25,
51 to 100,"Cc1nc(N)c2c(-c3ccc(NC(=O)C(O)c4cccc(F)c4)c(F)c3C)cn(C)c2n1 (stereo not shown) [Example 13, N-(4-(4-amino-2,7-dimethyl-7H-pyrrolo[2,3-d]pyrimidin-5-yl)-2-fluoro-3-methylphenyl)-2-(3-fluorophenyl)-2-hydroxyacetamide]",1000 to 2000,
1 to 25,"Cn1cc(-c2ccc(NC(=O)C(O)c3cccc(F)c3)cc2F)c2c(N)ncnc21 (single isomer, unassigned) [Example 3, N-(4-(4-amino-7-methyl-7H-pyrrolo[2,3-d]pyrimidin-5-yl)-3-fluorophenyl)-2-(3-fluorophenyl)-2-hydroxyacetamide]",26 to 50,
1 to 25,"Cc1cc(NC(=O)CC2CCCCC2)ccc1-c1cn(C)c2ncnc(N)c12 [Example 166, N-(4-(4-amino-7-methyl-7H-pyrrolo[2,3-d]pyrimidin-5-yl)-3-methylphenyl)-2-cyclohexyl-acetamide]",,101 to 250
51 to 100,"Cc1cc(NC(=O)Cc2ccc(C(F)(F)F)cc2)ccc1-c1cn(C)c2ncnc(N)c12 [Example 159, N-(4-(4-amino-7-methyl-7H-pyrrolo[2,3-d]pyrimidin-5-yl)-3-methylphenyl)-2-(4-(trifluoromethyl)phenyl)acetamide]",,501 to 1000
1 to 25,"Cc1nc(N)c2c(-c3ccc(NC(=O)C(O)c4cccc(C(F)(F)F)c4)cc3Cl)cn(C)c2n1 (stereo not shown) [Example 101, N-(4-(4-amino-2,7-dimethyl-7H-pyrrolo[2,3-d]pyrimidin-5-yl)-3-chlorophenyl)-2-hydroxy-2-(3-(trifluoromethyl)phenyl)acetamide]",1 to 25,
1 to 25,"Cc1cc(NC(=O)C(O)c2ccccc2Cl)ccc1-c1cn(C)c2ncnc(N)c12 (stereo not shown) [Example 33, N-(4-(4-amino-7-methyl-7H-pyrrolo[2,3-d]pyrimidin-5-yl)-3-methylphenyl)-2-(2-chlorophenyl)-2-hydroxyacetamide]",,51 to 100
1 to 25,"Cc1nc(N)c2c(-c3ccc(NC(=O)C(O)c4cccc(F)c4)cc3F)cn(C)c2n1 (stereo not shown) [Example 80, N-(4-(4-amino-2,7-dimethyl-7H-pyrrolo[2,3-d]pyrimidin-5-yl)-3-fluorophenyl)-2-(3-fluorophenyl)-2-hydroxyacetamide]",26 to 50,
1 to 25,"Cc1nc(N)c2c(-c3ccc(NC(=O)C(O)c4ccccc4C)cc3Cl)cn(C)c2n1 (stereo not shown) [Example 94, N-(4-(4-amino-2,7-dimethyl-7H-pyrrolo[2,3-d]pyrimidin-5-yl)-3-chlorophenyl)-2-hydroxy-2-(o-tolyl)acetamide]",51 to 100,
51 to 100,"Cc1nc(N)c2c(-c3ccc(NC(=O)C(O)c4cccc(F)c4)cc3C)cn(C)c2n1 (single isomer, unassigned) [Example 2, N-(4-(4-amino-2,7-dimethyl-7H-pyrrolo[2,3-d]pyrimidin-5-yl)-3-methylphenyl)-2-(3-fluorophenyl)-2-hydroxyacetamide]",251 to 500,
251 to 500,"Cc1nc(N)c2c(-c3ccc(NC(=O)C(O)c4ccccc4C(F)(F)F)cc3C)cn(C)c2n1 (stereo not shown) [Example 46, N-(4-(4-amino-2,7-dimethyl-7H-pyrrolo[2,3-d]pyrimidin-5-yl)-3-methylphenyl)-2-hydroxy-2-(2-(trifluoromethyl)phenyl)acetamide]",,2000 to 3000
1 to 25,"Cc1cc(NC(=O)C(O)c2cccc(F)c2)ccc1-c1cn(C)c2ncnc(N)c12 (stereo not shown) [Example 11, N-(4-(4-amino-7-methyl-7H-pyrrolo[2,3-d]pyrimidin-5-yl)-3-methylphenyl)-2-(3-fluorophenyl)-2-hydroxyacetamide]",1 to 25,
